Laboratory results: ChEMBL document CHEMBL1122435, “Pyrrolopyrimidine nucleosides. 18. Synthesis and chemotherapeutic activity of 4-amino-7-(3-deoxy-beta-D-ribofuranosyl)pyrrolo[2,3-d] pyrimidine-5-carboxamide (3'-deoxysangivamycin) and 4-amino-7-(2-deoxy-beta-D-ribofuranosyl)pyrrolo[2,3-d] pyrimidine-5-carboxamide (2'-deoxysangivamycin)” (1983)

Columns and labels:
[1] = system: L1210; assay: Increase in life span for drug treated L1210-bearing mice at the dose of 128 mg/kg upon intraperitoneal administration; type: functional; conditions: Mus musculus, L1210, ip
[2] = system: L1210; assay: Increase in life span for drug treated L1210-bearing mice at the dose of 0.25 mg/kg upon intraperitoneal administration; type: functional; conditions: Mus musculus, L1210, ip
[3] = system: L1210; assay: Occurrence of drug-induced shortening of life span resulting from treatment at 0.25 mg/kg dose in L1210-bearing mice; y=yes; type: functional, organism-based; parameters: dose 0.25 mg/kg; conditions: Mus musculus
[4] = system: L1210; assay: Increase in life span for drug treated L1210-bearing mice at the dose of 160 mg/kg upon intraperitoneal administration; type: functional; conditions: Mus musculus, L1210, ip
[5] = system: L1210; assay: Increase in life span for drug treated L1210-bearing mice at the dose of 100 mg/kg upon intraperitoneal administration; type: functional; conditions: Mus musculus, L1210, ip
[6] = system: L1210; assay: Occurrence of drug-induced shortening of life span resulting from treatment at 100 mg/kg dose in L1210-bearing mice; y=yes; type: functional, organism-based; parameters: dose 100 mg/kg; conditions: Mus musculus

`NC(=O)c1cn(C2OC(CO)CC2O)c2ncnc(N)c12` (stereo unspecified) showed an ILS at 128 mg/kg [1] of 128%.
In the case of `NC(=O)c1cn([C@@H]2O[C@H](CO)[C@@H](O)[C@H]2O)c2ncnc(N)c12` [SANGIVAMYCIN], the ILS at 0.25 mg/kg [2] is reported as 37% and the Toxicity [3] is reported as “Yes”.
Compound `NC(=O)c1cn([C@H]2C[C@H](O)[C@@H](CO)O2)c2ncnc(N)c12` has an ILS at 160 mg/kg [4] of 4%.
For `C[C@H]1OC(n2cc(C(N)=O)c3c(N)ncnc32)[C@H](O)[C@@H]1O` (stereo partly specified), the ILS at 100 mg/kg [5] was 5% and the Toxicity [6] was “Yes”.
